Experimental data from patent US7884234B2, “N-phenyloxamide derivatives” (Institute of Medicinal Molecular Design, inc., priority 2006, dated 2011).

Assays:
Format in all cases: biochemical
recombinant human PAI-1 [1] = molecular target: T1, recombinant human PAI-1 (Homo sapiens, UniProt P05121); experiment: Test Example 1: human PAI-1 inhibitory activity (tPA fluorogenic substrate assay, pH7.5 Tris buffer); details: for inhibition at 5 µM: pH 7.5, compound 5 μM; for inhibition at 5 µM / inhibition at 10 µM / inhibition at 25 µM: read-out: Inhibition Rate of Human PAI-1 Activity (%); for inhibition at 10 µM: pH 7.5, compound 10 μM; for inhibition at 25 µM: pH 7.5, compound 25 μM
T1 construct: purchased Molecular Innovations, Inc
Text: <Composition of pH7.5 Tris Buffer)
0.01% Tween80 (SIGMA-ALDRICH Corporation)

recombinant human PAI-1 [2] = molecular target: T1, recombinant human PAI-1; experiment: Test Example 4: human PAI-1 inhibitory activity (amount of PAI-1 bound to plate-coated tPA, ELISA); details: PAI-1 50 ng/ml bound to coated tPA, read-out: Inhibition Rate of Human PAI-1 Activity (%); for inhibition at 0.1 µM: compound 0.1 μM
Experimental: 100 μl of tPA solution where one-chain recombinant tPA (hereinafter refereed to as tPA; American diagnostica, inc.) diluted with Buffer A to achieve a concentration of 10 μg/ml was added to each well of 96-well plate (Nunc Maxisorp), incubated for one night at […] to coated with tPA. Then, after suction of tPA solution from the 96-well plate, rinsed successively with Buffer A and Buffer B.
To Buffer B, solutions of the present application compound dissolved with DMSO (final DMSO concentration: 0.2%) and recombinant human PAI-1 (Molecular Innovations, Inc.) were added and blended so that the final concentrations would be 0.1 to 3.0 μM and 50 ng/ml respectively, and were incubated for 15 minutes on ice. These mixed solutions were added to rinsed 96-well plates at 100 μl/well, and incubated for 60 minutes at room temperature. To prepare calibration curve, PAI-1 solutions without the present application compound (solutions where the final concentrations being 100, 50, 25, 12.5, 6.25, 3.13, 1.56 ng/ml PAI-1) were added at 100 μl/well, and were incubated for 60 minutes at room temperature, as standard.
After incubation, the reaction mixture was suction removed, and rinsed each well with Wash Buffer. Next, anti-human PAI-1 monoclonal antibody (PROGEN Inc.) diluted with Buffer C to be 3.0 μg/ml was added to the 96-well plate at 100 μl/well, and incubated for 1 hour at room temperature. After rinsing each well with Wash Buffer, alkaline phosphatase-labeled goat anti-mouse IgG (H+L) (Jackson ImmunoResearch, Inc.) diluted with Buffer D to be 0.12 μg/ml was added at 100 μl/well, and incubated for 1 hour at room temperature. After rinsing each well with Wash Buffer, 1.0 mg/ml p-Nitrophenyl Phosphate (SIGMA) was added to the 96-well plate at 100 μl/well to start the reaction. After 30 to 60 minutes, 25 μl of 0.5 N NaOH was added to stop the reaction, and the absorbance was measured at 405 nm using a multiplate reader (GENios; TECAN G.M.B.H.).
Based on the calibration curve prepared from the standard wells, amounts of PAI-1 bound to tPA in the wells treated with the present application compound were calculated, and the PAI-1 inhibition rates by the present application compounds were obtained by the following equation. [PAI-1 Inhibition Rate (%)]=[1-(amount of PAI-1 bound to tPA on the well treated with the present application compound)/(amount of PAI-1 bound to tPA on the well treated with PAI-1 solution without present application compound (solution with the final concentration of 50 ng/ml PAI-1)]×100 <Composition of Buffer A> 0.1 M Tris-HCl-150 150 mM NaCl pH 7.7 <Composition of Buffer B> 50 mM sodium phosphate 0.1 M NaCl 1 mM EDTA pH 6.6 <Composition of Buffer C> 50 mM sodium phosphate 100 mM NaCl pH 7.4 <Composition of Buffer D> 0.01 M Tris-HCl 0.25 M NaCl pH 8.0 <Composition of Wash Buffer> 0.05% Tween 20 0.1% BSA in Buffer A <Composition of p-Nitrophenyl Phosphate Solution> 1 M Diethanolamine 0.5 mM MgCl2 p-Nitrophenyl phosphate pH 9.8

recombinant rat PAI-1 = molecular target: T2, recombinant rat PAI-1 (Rattus norvegicus, UniProt P20961); experiment: Test Example 3: rat PAI-1 inhibitory activity (tPA fluorogenic substrate assay, pH7.4 HEPES buffer); details: for IC50: pH7.4 HEPES buffer, obtained from Table 7 results
T2 construct: purchased Molecular Innovations, Inc
T2 sequence (P20961 24-402): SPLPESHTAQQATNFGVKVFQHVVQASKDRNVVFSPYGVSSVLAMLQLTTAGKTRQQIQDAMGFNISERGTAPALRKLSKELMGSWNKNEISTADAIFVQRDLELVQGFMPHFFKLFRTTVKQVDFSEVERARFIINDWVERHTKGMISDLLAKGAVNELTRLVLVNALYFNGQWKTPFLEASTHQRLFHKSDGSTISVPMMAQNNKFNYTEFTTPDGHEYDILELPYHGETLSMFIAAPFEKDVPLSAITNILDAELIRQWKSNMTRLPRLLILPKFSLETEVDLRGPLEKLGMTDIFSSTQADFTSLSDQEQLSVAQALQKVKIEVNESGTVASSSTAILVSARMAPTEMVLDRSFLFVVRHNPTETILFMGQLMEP
Experimental: (§1) Except using the pH7.4 HEPES buffer instead of pH7.5 Tris buffer, and the change of incubation time from 15 minutes to 10 minutes of the mixed solution added by two-chain tPA solution, tests were carried out similarly to the Test Example 1.

recombinant human PAI-1 [3] = molecular target: T1, recombinant human PAI-1; experiment: Test Example 2: human PAI-1 inhibitory activity (tPA fluorogenic substrate assay, pH7.4 HEPES buffer); details: for IC50: pH7.4 HEPES buffer, obtained from Table 5 results
Experimental: as §1
<Compotion of pH7.4 HEPES Buffer>
0.1% Polyethylene glycol 8,000 (Hampton Research Corporation)
2 mM Dimethyldecylphoshine oxide [Apo-10] (Fluka Corporation)

T1 sequence (P05121 24-402): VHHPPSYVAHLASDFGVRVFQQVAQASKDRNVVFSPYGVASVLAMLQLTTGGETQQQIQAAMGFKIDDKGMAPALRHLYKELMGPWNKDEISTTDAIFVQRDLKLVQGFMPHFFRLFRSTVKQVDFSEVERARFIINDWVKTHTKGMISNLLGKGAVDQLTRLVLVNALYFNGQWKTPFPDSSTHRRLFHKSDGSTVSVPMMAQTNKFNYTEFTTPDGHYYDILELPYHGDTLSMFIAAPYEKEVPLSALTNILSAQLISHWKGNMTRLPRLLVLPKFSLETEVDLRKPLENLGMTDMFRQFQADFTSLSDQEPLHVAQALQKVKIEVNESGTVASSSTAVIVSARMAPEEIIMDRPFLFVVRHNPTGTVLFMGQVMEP

inhibition at 5 µM (recombinant human PAI-1 [1])	inhibition at 10 µM (recombinant human PAI-1 [1])	Structure (SMILES)	inhibition at 0.1 µM (recombinant human PAI-1 [2])	IC50 (recombinant rat PAI-1)	IC50 (recombinant human PAI-1 [3])	other results
15%	38%	O=C(O)C(=O)N(Cc1ccc(C(F)(F)F)cc1)c1ccc(-c2ccc(OC(F)(F)F)cc2)cc1 [compound 34, N-[4′-(trifluoromethoxy)biphenyl-4-yl]-N-[4-(trifluoromethyl)benzyl]oxamic Acid]	–	–	–	inhibition at 25 µM (recombinant human PAI-1 [1]): 81%
6%	12%	O=C(O)C(=O)N(Cc1ccccc1)c1ccc(-c2ccc(OC(F)(F)F)cc2)cc1 [compound 6, N-benzyl-N-[4′-(trifluoromethoxy)biphenyl-4-yl]oxamic Acid]	–	–	–	–
25%	56%	CC(C)(C)c1ccccc1N(C(=O)C(=O)O)c1ccccc1-c1ccc(OC(F)(F)F)cc1 [compound 37, N-[2-(tert-butyl)phenyl]-N-[4′-(trifluoromethoxy)biphenyl-2-yl]oxamic Acid]	–	–	–	inhibition at 25 µM (recombinant human PAI-1 [1]): 96%
–	–	CC(C)(C)c1ccc(CN(C(=O)C(=O)O)c2ccc(-c3ccc(C(F)(F)F)cc3)cc2)cc1 [compound 24, N-[4-(tert-butyl)benzyl]-N-[4′-(trifluoromethyl)phenyl-4-yl]oxamic Acid]	–	–	–	Inhibition Rate of Human PAI-1 Activity (%) (recombinant human PAI-1 [1]; compound 5 μM): 7%; Inhibition Rate of Human PAI-1 Activity (%) (recombinant human PAI-1 [1]; compound 10 μM): 35%; Inhibition Rate of Human PAI-1 Activity (%) (recombinant human PAI-1 [1]; compound 25 μM): 74%
–	–	CC(C)(C)c1ccc(CN(C(=O)C(=O)O)c2ccc(Cl)c(-c3ccc(OC(F)(F)F)cc3)c2)cc1 [compound 66, N-[4-(tert-butyl)benzyl]-N-[2-chloro-4′-(trifluoromethoxy)biphenyl-5-yl]oxamic Acid]	6%	1550 nM	1140 nM	inhibition at 3 µM (recombinant human PAI-1 [3]; pH 7.4, read-out: Inhibition Rate of Human PAI-1 Activity (%)): > 99%
–	–	COc1cc(OC)c(N(Cc2ccc(C(C)(C)C)cc2)C(=O)C(=O)O)cc1-c1ccc(OC(F)(F)F)cc1 [compound 70, N-[4-(tert-butyl)benzyl]-N-[2,4-dimethoxy-4′-(trifluoromethoxy)biphenyl-5-yl]oxamic Acid]	0%	2300 nM	1320 nM	inhibition at 0.3 µM (recombinant human PAI-1 [2]; compound 0.3 μM): 0%; inhibition at 10 µM (recombinant rat PAI-1; pH 7.4, read-out: Inhibition Rate of Rat PAI-1 Activity (%)): > 99%
–	–	CC(C)(C)c1ccc(CN(C(=O)C(=O)O)c2ccc(-c3ccc(OC(F)(F)F)cc3)cc2)cc1 [compound 8, N-[4-(tert-butyl)benzyl]-N-[4′-(trifluoromethoxy)biphenyl-4-yl]oxamic Acid]	0%	3130 nM	1630 nM	–
